Experimental data as given in patent publication US12006314B2, “Anti-cancer nuclear hormone receptor-targeting compounds” (Nuvation Bio Inc., priority 2021, dated 2024).
Numbering of substitutions follows the chain as printed. pIC50: −log10 of the molar value.

Legend:
22Rv1 cells = test: Cell viability assay 22Rv1; type: cell-based; conditions: Homo sapiens, 22Rv1, 144 h; 6 days, CellTiterGlo
Method: (§1) Cell viability assay: LNCap, 22Rv1, MCF7, MDAMB361, T47D, and IEC6 cells were seeded at a density of 500-2000 cells/well in 96 well plates, and a ‘T0’ (timepoint 0) was included along with the assay plate. The plates were then incubated at 37° C., 5% CO2 in a cell culture incubator overnight. On the next day, the ‘T0’ plate was assayed using CellTiterGlo (Promega, Inc) according to the manufacturer's instructions. The appropriate compounds were diluted in DMSO and added to the assay plate (final DMSO concentration of 0.1-0.2%) on the next day. The assay plates were incubated for 6 days at 37° C., 5% CO2. After the incubation period, the plates were assayed using CellTiterGlo (Promega, Inc) according to the manufacturer's instructions and luminescence was read on the EnVision plate reader. Inhibition of the tested compounds was determined by the following formula: Inhibition rate (%)=(1−(RLU compound−RLU day0)/(RLU control−RLU day0))*100%. GraphPadPrism was used to analyze the data and determine GI50/IC50 values.

IEC6 cells = test: Cell viability assay IEC6; type: cell-based; conditions: Rattus norvegicus, IEC-6, 144 h; 6 days, CellTiterGlo
Method: as §1

[1] = target: T1, full-length androgen receptor (HEK293 cells stably expressing) (Homo sapiens, UniProt P10275); test: AR antagonism assay; type: cell-based; conditions: testosterone 1 nM, 20 h, Steady-glo
T1 construct: HEK293 cells stably expressing the full-length androgen receptor were seeded; expressed in transfected cells
T1 sequence (P10275 1-920): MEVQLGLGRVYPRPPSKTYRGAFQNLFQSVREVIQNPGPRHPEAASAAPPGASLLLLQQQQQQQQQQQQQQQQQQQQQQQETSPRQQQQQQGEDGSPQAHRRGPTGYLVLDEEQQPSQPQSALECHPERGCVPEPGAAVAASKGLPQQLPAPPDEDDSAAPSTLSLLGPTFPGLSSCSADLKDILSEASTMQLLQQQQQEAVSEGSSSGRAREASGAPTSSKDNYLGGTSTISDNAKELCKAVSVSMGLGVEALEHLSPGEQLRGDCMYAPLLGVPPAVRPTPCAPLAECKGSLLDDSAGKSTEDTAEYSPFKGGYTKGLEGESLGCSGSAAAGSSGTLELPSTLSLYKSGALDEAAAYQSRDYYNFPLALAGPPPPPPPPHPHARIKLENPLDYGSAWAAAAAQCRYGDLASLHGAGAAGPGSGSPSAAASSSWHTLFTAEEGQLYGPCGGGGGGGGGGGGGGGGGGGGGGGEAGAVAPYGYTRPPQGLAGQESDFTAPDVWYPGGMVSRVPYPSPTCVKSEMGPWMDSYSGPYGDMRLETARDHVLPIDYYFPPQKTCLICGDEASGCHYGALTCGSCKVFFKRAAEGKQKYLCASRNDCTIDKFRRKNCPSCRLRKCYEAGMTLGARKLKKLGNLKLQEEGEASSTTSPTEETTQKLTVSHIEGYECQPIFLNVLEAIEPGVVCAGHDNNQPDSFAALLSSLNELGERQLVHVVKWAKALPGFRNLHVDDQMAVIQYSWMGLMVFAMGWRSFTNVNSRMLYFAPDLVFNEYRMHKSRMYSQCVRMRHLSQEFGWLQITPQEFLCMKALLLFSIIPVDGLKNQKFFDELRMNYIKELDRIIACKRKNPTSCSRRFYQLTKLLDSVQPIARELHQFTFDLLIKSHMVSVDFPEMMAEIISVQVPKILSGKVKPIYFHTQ
Method: AR antagonism assay: To evaluate AR antagonist activity, test compound was added to the assay plate (top dose 10 μM, 3 fold serial dilution, 10 point dose response). HEK293 cells stably expressing the full-length androgen receptor were seeded at a density of 20000 cells/well in the assay plate. The assay plate was then incubated at room temperature for 10 minutes and at 37° C., 5% CO2 for 20 minutes. Testosterone is added to the assay plate at 1 nM final concentration and the assay plate incubated at 37° C., 5% CO2 for 20 h. After the incubation period, Steady-glo was added to the assay plate and mixed at room temperature for 20 minutes on an orbital shaker, before reading out on the EnVision plate reader.

LNCap cells = test: Cell viability assay LNCap; type: cell-based; conditions: Homo sapiens, 144 h, 6 days, CellTiterGlo
Method: as §1

[2] = target: T2, AR (cytosol from LnCaP cells) (Homo sapiens, UniProt P10275, T878A); test: AR binding assay; conditions: 3H-R1881 1 nM, 4° C. 24 hrs
T2 construct: endogenous in cells; host or cells: LNCaP cytosol
T2 sequence (P10275 1-920 T878A): T1 sequence (P10275 1-920) with T878A
Method: AR binding assay: To assess AR binding, test compound (top dose 10 μM, 4 fold serial dilution, 8 point dose response) and control (progesterone) were transferred to the assay plate. Cytosol from LnCaP cells was added to the plate, followed by addition of radiolabeled ^3H-R1881 at a final concentration of 1 nM. The plate was sealed, and the reaction was incubated at 300 rpm at 4° C. for 24 hrs. Radioligand absorption buffer (10 mM Tris-HCl, pH 7.4; 1.5 mM EDTA; 1 mM DTT; 0.25% charcoal; 0.0025% dextran) was then added to the plate, mixed, and incubated at 4° C. for 15 minutes. The plate was then centrifuged at 3000 rpm for 30 minutes at 4° C. The supernatant was transferred to the scint-tube and Tri-carb was used for scintillation counting.

MDAMB361 cells = test: Cell viability assay MDAMB361; type: cell-based; conditions: Homo sapiens, MDA-MB-361, 144 h; 6 days, CellTiterGlo
Method: as §1

MCF7 cells = test: Cell viability assay MCF7; type: cell-based; conditions: Homo sapiens, MCF7, 144 h; 6 days, CellTiterGlo
Method: as §1

[3] = target: T3, ER (SK-BR-3 cells transfected with ERE plasmid and ER) (Homo sapiens, UniProt P03372); test: ER antagonism assay; type: cell-based; conditions: 100 nM β-Estradiol, 24 h, Dual-glo luciferase
T3 construct: expressed in transfected cells; host or cells: SK-BR-3 (transient, lipofectamine 3000)
T3 sequence (P03372 1-595): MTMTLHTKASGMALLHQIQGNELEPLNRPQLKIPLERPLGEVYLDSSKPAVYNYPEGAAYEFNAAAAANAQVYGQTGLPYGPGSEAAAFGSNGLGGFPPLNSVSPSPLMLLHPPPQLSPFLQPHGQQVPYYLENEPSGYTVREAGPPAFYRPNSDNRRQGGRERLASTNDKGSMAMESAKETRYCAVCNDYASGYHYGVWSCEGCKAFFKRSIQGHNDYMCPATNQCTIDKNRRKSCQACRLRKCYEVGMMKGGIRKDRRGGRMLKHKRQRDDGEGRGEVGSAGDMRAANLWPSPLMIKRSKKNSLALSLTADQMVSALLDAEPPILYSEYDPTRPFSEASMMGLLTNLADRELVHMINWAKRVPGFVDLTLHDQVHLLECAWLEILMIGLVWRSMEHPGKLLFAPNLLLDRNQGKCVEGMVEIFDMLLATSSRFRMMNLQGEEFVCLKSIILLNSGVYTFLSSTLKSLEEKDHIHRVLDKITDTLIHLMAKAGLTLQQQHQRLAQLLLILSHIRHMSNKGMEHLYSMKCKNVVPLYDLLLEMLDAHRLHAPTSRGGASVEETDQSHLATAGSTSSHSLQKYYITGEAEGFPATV
Method: ER antagonism assay: To evaluate ER antagonist activity, SK-BR-3 cells were seeded at a density of 30000 cells/well in the assay plate. The assay plate was then incubated at 37° C., 5% CO2 for 24 h. A mixture of ERE plasmid and ER in opti-MEM media was incubated with lipofectamine 3000 in Opti-MEM media and incubated at room temperature for 15 minutes. 10 μL of this transfection mix was added to each well of the assay plate and the assay plate was incubated at 37° C., 5% CO2 for 24 h. 100 nM β-Estradiol in 10 μL medium or 10 μL medium (control wells) was added to corresponding wells of assay plate and incubated at 37° C. 5% CO2 for 24 h. After the incubation period, 50 μL of Dual-glo luciferase reagent was added to the assay plate and mixed at room temperature for 20 mins on an orbital shaker, before reading out on the EnVision plate reader. 50 μL of Stop & Glo reagent was added to assay plate, mixed at room temperature for 20 minutes, and read on the Envision plate reader.

Structure (SMILES) | GI50 (22Rv1 cells) [µM] | pIC50 (IEC6 cells) | pIC50 [1] | GI50 (LNCap cells) [µM] | pIC50 [2] | GI50 (MDAMB361 cells) [µM] | GI50 (MCF7 cells) [µM] | pIC50 [3]
CCc1cc2ncc(CN3CCN(CC4CCN(c5ccc(C(=O)N[C@H]6CC[C@H](Oc7ccc(C#N)c(Cl)c7C)CC6)nn5)CC4)CC3)cc2[nH]c1=O [Compound 66, N-((1r,4r)-4-(3-Chloro-4-cyano-2-methylphenoxy)cyclohexyl)-6-(4-((4-((7-ethyl-6-oxo-5,6-dihydro-1,5-naphthyridin-3-yl)methyl)piperazin-1-yl)methyl)piperidin-1-yl)pyridazine-3-carboxamide] | ≤ 0.5 | 5.30 to 6.30 | < 5.00 | ≤ 0.5 | > 7.00 | – | – | –
CCc1cc2ncc(CN3CCN(CC4CCN(c5ccc(C(=O)N[C@H]6CC[C@H](N(C)c7ccc(C#N)c(Cl)c7)CC6)nn5)CC4)CC3)cc2[nH]c1=O [Compound 67, N-((1R,4R)-4-((3-Chloro-4-cyanophenyl)(methyl)amino)cyclohexyl)-6-(4-((4-((7-ethyl-6-oxo-5,6-dihydro-1,5-naphthyridin-3-yl)methyl)piperazin-1-yl)methyl)piperidin-1-yl)pyridazine-3-carboxamide] | ≤ 0.5 | < 4.52 | < 5.00 | ≤ 0.5 | > 7.00 | – | – | –
CCc1cc2ncc(CN3CCN(Cc4ccc(-c5nnc([C@H](Nc6ccc(C#N)c(Cl)c6)[C@H](C)O)o5)cc4)CC3)cc2[nH]c1=O [Compound 68, 2-Chloro-4-(((1R,2S)-1-(5-(4-((4-((7-ethyl-6-oxo-5,6-dihydro-1,5-naphthyridin-3-yl)methyl)piperazin-1-yl)methyl)phenyl)-1,3,4-oxadiazol-2-yl)-2-hydroxypropyl)amino)benzonitrile] | 5 to 30 | < 4.52 | < 5.00 | 0.5 to 5 | < 5.00 | – | – | –
CCc1cc2ncc(CN3CCN(Cc4ccc(-c5nnc([C@H](Nc6ccc(C#N)c(Cl)c6C)[C@H](C)O)o5)cc4)CC3)cc2[nH]c1=O [Compound 69, 2-Chloro-4-(((1R,2S)-1-(5-(4-((4-((7-ethyl-6-oxo-5,6-dihydro-1,5-naphthyridin-3-yl)methyl)piperazin-1-yl)methyl)phenyl)-1,3,4-oxadiazol-2-yl)-2-hydroxypropyl)amino)-3-methylbenzonitrile] | 5 to 30 | < 4.52 | < 5.00 | 0.5 to 5 | < 5.00 | – | – | –
CCc1cc2ncc(CN3CCN(C(=O)[C@H]4CC[C@H](COc5cc(F)c([C@@H]6c7[nH]c8ccccc8c7C[C@@H](C)N6CC(C)(C)F)c(F)c5)CC4)CC3)cc2[nH]c1=O [Compound 70, 7-((4-((1r,4r)-4-((3,5-Difluoro-4-((1R,3R)-2-(2-fluoro-2-methylpropyl)-3-methyl-2,3,4,9-tetrahydro-1H-pyrido[3,4-b]indol-1-yl)phenoxy)methyl)cyclohexane-1-carbonyl)piperazin-1-yl)methyl)-3-ethyl-1,5-naphthyridin-2(1H)-one] | – | < 4.52 | – | – | – | ≤ 0.5 | 5 to 30 | ≥ 7.00
